The values that follow are results of earlier work, collected in patent US8039023B1, “Composition for relief of menstrual cramps and muscle cramps” (priority 2009, dated 2011).

In this series the test system is pain and muscle cramping symptoms. The note with it: prior art, various brands, typical.
For `CC(=O)Nc1ccc(O)cc1` [acetaminophen], the “time after ingestion to reduced discomfort from pain and muscle cramping symptoms” value is reported as “twenty to forty”.
For the compound `CC(=O)Oc1ccccc1C(=O)O` [aspirin], the “time after ingestion to reduced discomfort from pain and muscle cramping symptoms” value is reported as “twenty to forty”.
For the compound `CC(C)Cc1ccc(C(C)C(=O)O)cc1` (stereo not drawn) [ibuprofen], the “time after ingestion to reduced discomfort from pain and muscle cramping symptoms” value is recorded as “twenty to forty”.
